Laboratory results reported in patent US11446354B2, “Method of treatment” (Hexima Limited, priority 2014, dated 2022).
Where two headings read alike, the source gives them in different places.

Key:
[1] = format: in vitro ADME, Human; settings: for Cumulative amount through nail as percent (of applied dose): human
Description: Penetration of NaD1 through human nails was measured according to the method of Hui et al. (2002) J Pharm Sci 91(1):189-195. Human toenails were obtained from ScienceCare (USA) and washed with phosphate buffered saline (details, PBS) before being placed on a kimwipe that had been soaked in PBS for 3 h to rehydrate the nail. The nail was then placed in a plastic nail adapter with a dosing area of 0.5×0.5 cm (Permagear, USA) and a cotton bud wetted with 75 microlitres of PBS was placed in the receptor chamber in contact with the underside of the nail.
The cotton bud in contact with the underside of the nail was removed after 24 h and every 24 h following. Protein that had passed through the nail was recovered from the cotton bud by washing twice with 500 μL of 0.1% v/v trifluoroacetic acid. Recovered protein was quantified using RP-HPLC.

[2] = test system: Trichophyton rubrum, T. interdigitale, Microsporum fulvum and C. albicans; assay: Inhibition assays summarised across the range of fungal pathogens; format: cell-based; settings: summary of Table 3
Description: (§1) The inhibitory effects of the plant defensins on the growth of Trichophyton rubrum, T. interdigitale, Microsporum fulvum and C. albicans (obtained from the National Mycology Reference Centre, South Australia Pathology at the Women's and Children's Hospital, Adelaide, Australia) are measured essentially as described by Broekaert et al. (1990) FEMS Microbiol Lett 69:55-59. Spores of T. rubrum, T. interdigitale and M. fulvum are isolated from sporulating fungus growing on 1⁄2 strength Sabouraud dextrose agar (SDA). Spores were removed from the plates by the addition of 1⁄2 strength potato dextrose broth (PDB). C. albicans cells are grown in Yeast Peptone Broth (YPD) for 16 h. Spore and cell concentrations are measured using a hemocytometer. Antifungal assays are conducted in 96 well microtitre plates essentially as herein described. Wells are loaded with 20 μL of filter sterilized (0.22 μm syringe filter, Millipore) defensin (10× stock for each final concentration) or water and 80 μL of 5×10^4 spores/mL (T. rubrum, T, interdigitale, M. fulvum) or 5,000 cells/mL (C. albicans) in 1⁄2 strength PDB. The plates are incubated at 30° C. Fungal growth is assayed by measuring optical density at 595 nm ([…]) using a microtitre plate reader (SpectraMax Pro M2; Molecular Devices. Growth is allowed to proceed until the optical density (OD) of the fungus in the absence of any test defensin reached an OD of 0.2. Each test is performed in duplicate.

[3] = test system: Human monocytic lymphoma (U937) cells; format: cell-based
Description: Human monocytic lymphoma (U937) cells are cultured in RPMI-1640 medium. All culture media are supplemented with 5-10% v/v fetal calf serum, 100 U/ml of penicillin, and 100 μg/ml of streptomycin. Cell lines are cultured at 37° C. in a humidified atmosphere containing 5% v/v CO2. Adherent cell lines are detached from the flask by adding a mixture containing 0.25% v/v trypsin and […]. A flow cytometry-based propidium iodide (PI) uptake assay is performed to analyze the ability of plant defensins to permeabilize U937 cells (essentially as described in Poon et al, 2014). Briefly, cells are suspended to 1×10^6 cells/ml in 0.1% v/v BSA/RPMI-1640 and incubated with plant defensins (10 μM) at 37° C. for 30 min. Samples are added to PBS containing a final concentration of 1 μg/ml PI and placed on ice. Samples are then analyzed immediately using the BD FACSCanto II Flow Cytometer and BD FACSDiva software v6.1.1. The resultant flow cytometry data is analyzed using FlowJo software v8.8.6. Cells are gated appropriately based on forward scatter and side scatter and cell permeabilization is defined by PI-positive staining.

[4] = test system: Microsporum fulvum; assay: Antifungal growth inhibition assay, Microsporum fulvum; format: cell-based; settings: summary of Table 3
Description: as §1, with “Wells are loaded with 20 μL of filter sterilized (0.22 μm syringe filter, Millipore) defensin (10× stock for each final concentration) or water and 80 μL of 5×10^4 spores/mL (T. rubrum, T, interdigitale, M. fulvum) or 5,000 cells/mL (C. albicans) in 1⁄2 strength PDB. The plates are incubated at 30° C.” left out

[5] = test system: C. albicans; assay: Antifungal growth inhibition assay, C. albicans; format: cell-based, Candida albicans; settings: summary of Table 3
Description: as §1, with “Wells are loaded with 20 μL of filter sterilized (0.22 μm syringe filter, Millipore) defensin (10× stock for each final concentration) or water and 80 μL of 5×10^4 spores/mL (T. rubrum, T, interdigitale, M. fulvum) or 5,000 cells/mL (C. albicans) in 1⁄2 strength PDB. The plates are incubated at 30° C.” left out

[6] = test system: Escherichia coli; assay: Inhibition of the growth of Escherichia coli; format: cell-based; settings: 0.1625-10 μM, 18 hours, 37° C.
Description: A single E. coli colony was used to inoculate 5 ml of Luria-Bertani media and grown overnight at 37° C. The following day, the optical density of the culture was measured and the E. coli diluted to an optical density at 600 nm (OD600) of 0.01 in Mueller-Hinton Broth. Diluted E. coli were added to 96-well plates with defensins at concentrations of 10 μM, 5 μM, 2.5 μM, 1.25 μM, 0.625 μM, 0.3125 μM or 0.1625 μM. Plates were read at OD595 to obtain time zero data points. Plates were incubated at 37° C. for 18 hours before reading again at OD595 to assess the amount of E. coli growth.

Compound: Cc1cc(C2CCCCC2)n(O)c(=O)c1 [Ciclopirox]
- Cumulative amount through nail as percent (of applied dose) ([1]; 3 day, 10 %): 0.03%
- Cumulative amount through nail as percent (of applied dose) ([1]; 6 day, 10 %): 0.03%
- Cumulative amount through nail as percent (of applied dose) ([1]; 9 day, 10 %): 0.04%
- Cumulative amount through nail as percent (of applied dose) ([1]; 12 day, 10 % solution): 0.05%
- Cumulative amount through nail as percent (of applied dose) ([1]; 15 day, 10 % solution): 0.06%

Compound: C=C1CCN([C@H](C)[C@](O)(Cn2cncn2)c2ccc(F)cc2F)CC1 [Efinaconazole]
- Cumulative amount through nail as percent (of applied dose) ([1]; 1 day, 10 % solution): 0.2%
- Cumulative amount through nail as percent (of applied dose) ([1]; 2 day, 10 % solution): 0.4%
- Cumulative amount through nail as percent (of applied dose) ([1]; 3 day, 10 %): 0.7%
- Cumulative amount through nail as percent (of applied dose) ([1]; 4 day, 10 % solution): 0.8%
- Cumulative amount through nail as percent (of applied dose) ([1]; 6 day, 10 %): 1.3%
- Cumulative amount through nail as percent (of applied dose) ([1]; 9 day, 10 %): 2.0%
- Cumulative amount through nail as percent (of applied dose) ([1]; 12 day, 10 % solution): 2.7%
- Cumulative amount through nail as percent (of applied dose) ([1]; 15 day, 10 % solution): 3.3%

Compound: OB1OCc2cc(F)ccc21 [Tavaborole]
- Cumulative amount through nail as percent (of applied dose) ([1]; 3 day, 10 %): 2.0%
- Cumulative amount through nail as percent (of applied dose) ([1]; 6 day, 10 %): 3.7%
- Cumulative amount through nail as percent (of applied dose) ([1]; 9 day, 10 %): 6.8%
- Cumulative amount through nail as percent (of applied dose) ([1]; 12 day, 10 % solution): 10.7%
- Cumulative amount through nail as percent (of applied dose) ([1]; 15 day, 10 % solution): 14.9%

Compound: HXL001: Class I plant defensin from Zea mays, SEQ ID NO: 4 (RHCLSQSHRFKGLCMSSNNCANVCQTENFPGGECKAEGATRKCFCKKIC; HXL001 Zea mays)
- Antifungal activity across the range of fungal pathogens, result in words [2]: did not display any activity at the concentrations tested
- U937 cells permeabilized (PI-positive) [3]: less than 2%

Compound: HXL002: Class I plant defensin from Triticum aestivum, SEQ ID NO: 5 (RDCLSQSHKFKGACLSSSNCAAVCRTENFPDGECHTHNFARKCFCKRAC; HXL002 Triticum aestivum)
- Inhibition of M. fulvum, result in words [4]: very poor inhibitors
- Inhibition of C. albicans, result in words [5]: very poor inhibitors
- U937 cells permeabilized (PI-positive) [3]: less than 2%

Compound: HXL004: Class I plant defensin from Nicotiana benthamiana, SEQ ID NO: 7 (RTCESQSHRFKGLCFSRSNCASVCHTEGFNGGHCRGFRRRCFCTRHC; HXL004 Nicotiana benthamiana)
- Antifungal activity across the range of fungal pathogens, result in words [2]: intermediate activity across the range of pathogens
- Nail penetration, result in words [1]: able to penetrate nails faster and more effectively than the active ingredients of current topical onychomycosis therapies
- Growth of E. coli in the presence of defensin [6]: inhibited the growth of E. coli in a concentration dependent manner
- U937 cells permeabilized (PI-positive) [3]: 13%

Compound: HXL005: Class I plant defensin from Taraxcum kok-saghyz, SEQ ID NO: 8 (KMCQTTSHAFSCVNDSGCSGSCEKQGFASGKCDGVRRRCTCYKKC; HXL005 Taraxcum kok-saghyz)
- Antifungal activity across the range of fungal pathogens, result in words [2]: most effective plant defensins across the range of fungal pathogens
- U937 cells permeabilized (PI-positive) [3]: ~25%

Compound: HXL009: Class I plant defensin from Zea mays, SEQ ID NO: 9 (TVCMRHNNFYHGPCMSNKDCANSCVQHNLGVGGYCRGKIPFNKECMCTFEC; HXL009 Zea mays)
- Antifungal activity across the range of fungal pathogens, result in words [2]: did not display any activity at the concentrations tested
- U937 cells permeabilized (PI-positive) [3]: less than 2%

Compound: HXL012: Class I plant defensin from Amaranthus retroflexus, SEQ ID NO: 10 (RMCKAPSKLFRGMCGIRDSNCDSVCRAEGMAAGDCHGLRRRCICSRPC; HXL012 Amaranthus retroflexus)
- Antifungal activity across the range of fungal pathogens, result in words [2]: intermediate activity across the range of pathogens
- Nail penetration, result in words [1]: did not penetrate the nail
- U937 cells permeabilized (PI-positive) [3]: less than 2%

Compound: HXL013: Class I plant defensin from Glycine max, SEQ ID NO: 11 (KDCLTRRHGFQGRCLFDRQCAHVCRSDGFIGGQCRGPLRKCFCSRPC; HXL013 Glycine max)
- Antifungal activity across the range of fungal pathogens, result in words [2]: intermediate activity across the range of pathogens
- U937 cells permeabilized (PI-positive) [3]: 5%

Compound: HXL015: Class I plant defensin from Oryza sativa, SEQ ID NO: 12 (RHCLSQSHRFKGMCVSSNNCANVCRTESFPDGECKSHGLERKCFCKKVC; HXL015 Oryza sativa)
- Antifungal activity across the range of fungal pathogens, result in words [2]: intermediate activity across the range of pathogens

Compound: HXL035: Class I plant defensin from Picramnia pentandra, SEQ ID NO: 2 (KVCTKPSKFFKGLCGFDRDCTVACKKEGLASGFCQNKGFFNVVCVCRKPC; HXL035 Picramnia pentandra)
- Antifungal activity across the range of fungal pathogens, result in words [2]: most effective plant defensins across the range of fungal pathogens

Compound: HXP4: Artificial defensin variant, Loop1B of a Class I defensin replaces that of the Solanaceous Class II defensin, SEQ ID NO: 21 (RECKTESHRFKGPCITKPPCRKACISEKFTDGHCSKILRRCLCTKPC; HXP4)
- U937 cells permeabilized (PI-positive) [3]: 13%

Compound: LL37: human antimicrobial peptide LL37 used as a control (LLGDFFRKSKEKIGKEFKRIVQRIKDFLRNLVPRTES; Antibacterial peptide LL-37; UniProt P49913 134-170, looked up) [reference compound]
- Growth of E. coli in the presence of defensin [6]: inhibited the growth of E. coli in a concentration dependent manner

Compound: NaD1: Solanaceous Class II plant defensin from Nicotiana alata, SEQ ID NO: 18 (RECKTESNTFPGICITKPPCRKACISEKFTDGHCSKILRRCLCTKPC; NaD1 Nicotiana alata) [reference compound]
- Nail penetration, result in words [1]: able to penetrate nails faster and more effectively than the active ingredients of current topical onychomycosis therapies
- Growth of E. coli in the presence of defensin [6]: did not inhibit growth of E. coli at the concentrations tested
- U937 cells permeabilized (PI-positive) [3]: 33%
